# Values quoted from earlier work as cited in patent US20180228811A1, “GDNF INDUCTION FOR THE TREATMENT OF RETINAL DISORDERS” (THE SCHEPENS EYE RESEARCH INSTITUTE, INC., priority 2014, published 2018).
# Tested on: photoreceptors
# Details: rd10 mouse, systemic treatment (Mitton et al. 2014); cited from earlier work
smiles,measurement,value
"CCCC(CCC)C(=O)O [VPA, Valproic acid]","photoreceptor rescue, result in words",partial photoreceptor rescue
